Values joined by “and” are separate entries in the source; they are usually repeats but may differ in a detail not shown here. Equal values may be shown once.

Broadly, the AC50 is the concentration at which the activity in the assay is half-maximal.

For one assay, the target named is D(1A) dopamine receptor (Homo sapiens, UniProt P21728). Format: functional, cell-based.
For assay [1], the target named is Gamma-aminobutyric acid receptor subunit alpha-1 (Rattus norvegicus, UniProt P62813).
Another assay concerns the target Vasopressin V1a receptor (Homo sapiens, UniProt P37288).
The target of assay [2] is 3',5'-cyclic-AMP phosphodiesterase 4D (Homo sapiens, UniProt Q08499). Type of assay: functional.
Assay [3] addresses T1, Muscarinic acetylcholine receptor M1 (Homo sapiens, UniProt P11229).
T1 sequence (P11229 whole entry): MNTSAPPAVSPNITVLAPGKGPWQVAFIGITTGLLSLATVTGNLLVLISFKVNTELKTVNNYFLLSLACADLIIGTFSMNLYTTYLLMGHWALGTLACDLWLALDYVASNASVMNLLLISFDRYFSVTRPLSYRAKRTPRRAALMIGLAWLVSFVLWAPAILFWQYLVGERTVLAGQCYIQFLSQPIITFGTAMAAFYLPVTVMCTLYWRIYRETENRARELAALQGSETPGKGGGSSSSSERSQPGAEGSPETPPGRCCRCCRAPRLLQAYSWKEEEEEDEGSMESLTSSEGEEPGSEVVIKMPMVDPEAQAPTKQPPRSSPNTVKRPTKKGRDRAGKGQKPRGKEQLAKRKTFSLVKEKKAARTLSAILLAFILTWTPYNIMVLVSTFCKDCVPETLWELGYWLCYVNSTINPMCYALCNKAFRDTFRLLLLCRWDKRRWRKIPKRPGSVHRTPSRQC
Format: functional.

Assay [4] deals with Voltage-gated inwardly rectifying potassium channel KCNH2 (Homo sapiens, UniProt Q12809). Format: functional. The conditions noted are these: read-out: AC50.
A further assay deals with Histamine H3 receptor (Homo sapiens, UniProt Q9Y5N1).
For assay [5], the target named is Sodium-dependent dopamine transporter (Homo sapiens, UniProt Q01959).
The target of assay [6] is T2, Type-1 angiotensin II receptor (Homo sapiens, UniProt P30556).
T2 sequence (P30556 whole entry): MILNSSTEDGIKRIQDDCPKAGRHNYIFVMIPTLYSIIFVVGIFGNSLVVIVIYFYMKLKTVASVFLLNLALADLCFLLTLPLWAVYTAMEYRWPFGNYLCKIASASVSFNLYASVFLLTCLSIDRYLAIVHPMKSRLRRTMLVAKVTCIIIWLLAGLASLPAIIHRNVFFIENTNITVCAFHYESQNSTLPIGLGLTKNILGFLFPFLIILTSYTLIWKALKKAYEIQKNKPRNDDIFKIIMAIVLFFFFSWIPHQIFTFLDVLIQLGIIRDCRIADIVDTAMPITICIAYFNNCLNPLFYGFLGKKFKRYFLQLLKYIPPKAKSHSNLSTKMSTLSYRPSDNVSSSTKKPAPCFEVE

Assay [7] addresses 5-hydroxytryptamine receptor 2B (Homo sapiens, UniProt P41595). Format: functional, cell-based.
In a further assay the target is T3, Estrogen receptor (Homo sapiens, UniProt P03372).
T3 sequence (P03372 whole entry): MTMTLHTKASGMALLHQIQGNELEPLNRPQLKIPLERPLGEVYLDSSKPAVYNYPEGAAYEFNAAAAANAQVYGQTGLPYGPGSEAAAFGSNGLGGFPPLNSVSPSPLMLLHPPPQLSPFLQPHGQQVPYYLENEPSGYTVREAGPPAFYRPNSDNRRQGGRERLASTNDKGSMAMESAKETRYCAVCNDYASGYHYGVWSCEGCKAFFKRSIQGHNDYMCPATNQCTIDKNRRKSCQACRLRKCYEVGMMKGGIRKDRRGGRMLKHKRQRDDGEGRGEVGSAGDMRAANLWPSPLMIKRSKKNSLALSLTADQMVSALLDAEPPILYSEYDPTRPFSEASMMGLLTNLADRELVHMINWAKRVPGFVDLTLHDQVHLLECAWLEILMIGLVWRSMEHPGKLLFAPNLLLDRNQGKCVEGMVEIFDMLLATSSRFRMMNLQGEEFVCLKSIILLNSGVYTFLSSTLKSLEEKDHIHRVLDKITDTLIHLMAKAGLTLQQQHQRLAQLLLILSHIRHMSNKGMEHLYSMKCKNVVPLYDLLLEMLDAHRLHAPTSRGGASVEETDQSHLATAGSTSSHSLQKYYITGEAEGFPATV

Assay [8] has as its target T4, Equilibrative nucleoside transporter 1 (Homo sapiens, UniProt Q99808).
T4 sequence (Q99808 whole entry): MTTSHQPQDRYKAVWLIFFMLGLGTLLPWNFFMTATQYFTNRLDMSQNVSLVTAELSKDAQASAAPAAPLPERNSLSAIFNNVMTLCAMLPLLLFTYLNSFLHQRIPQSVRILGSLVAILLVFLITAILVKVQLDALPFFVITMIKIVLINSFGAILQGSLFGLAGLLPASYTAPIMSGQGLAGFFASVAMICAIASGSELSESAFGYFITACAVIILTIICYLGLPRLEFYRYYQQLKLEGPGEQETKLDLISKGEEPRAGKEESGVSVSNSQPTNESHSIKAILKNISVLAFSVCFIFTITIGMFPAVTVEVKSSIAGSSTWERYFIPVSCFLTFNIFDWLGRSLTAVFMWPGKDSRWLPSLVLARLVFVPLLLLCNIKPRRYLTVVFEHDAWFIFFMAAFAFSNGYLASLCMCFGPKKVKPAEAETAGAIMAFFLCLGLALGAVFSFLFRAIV

The target in assay [9] is T5, Alpha-2C adrenergic receptor (Homo sapiens, UniProt P18825).
T5 sequence (P18825 whole entry): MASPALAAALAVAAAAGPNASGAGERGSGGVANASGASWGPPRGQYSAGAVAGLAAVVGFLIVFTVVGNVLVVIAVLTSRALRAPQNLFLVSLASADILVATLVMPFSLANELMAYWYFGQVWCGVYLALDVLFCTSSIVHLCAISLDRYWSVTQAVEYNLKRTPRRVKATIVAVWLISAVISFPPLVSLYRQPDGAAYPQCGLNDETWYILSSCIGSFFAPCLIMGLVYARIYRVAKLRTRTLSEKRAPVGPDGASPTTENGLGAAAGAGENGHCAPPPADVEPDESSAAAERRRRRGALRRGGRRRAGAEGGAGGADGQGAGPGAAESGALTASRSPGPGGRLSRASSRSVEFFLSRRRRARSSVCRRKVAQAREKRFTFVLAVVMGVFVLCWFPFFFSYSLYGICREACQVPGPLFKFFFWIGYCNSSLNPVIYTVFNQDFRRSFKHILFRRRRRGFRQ
Type of assay: functional.
Note: assay procedure not described here.

Sodium-dependent dopamine transporter, sequence (Q01959 whole entry): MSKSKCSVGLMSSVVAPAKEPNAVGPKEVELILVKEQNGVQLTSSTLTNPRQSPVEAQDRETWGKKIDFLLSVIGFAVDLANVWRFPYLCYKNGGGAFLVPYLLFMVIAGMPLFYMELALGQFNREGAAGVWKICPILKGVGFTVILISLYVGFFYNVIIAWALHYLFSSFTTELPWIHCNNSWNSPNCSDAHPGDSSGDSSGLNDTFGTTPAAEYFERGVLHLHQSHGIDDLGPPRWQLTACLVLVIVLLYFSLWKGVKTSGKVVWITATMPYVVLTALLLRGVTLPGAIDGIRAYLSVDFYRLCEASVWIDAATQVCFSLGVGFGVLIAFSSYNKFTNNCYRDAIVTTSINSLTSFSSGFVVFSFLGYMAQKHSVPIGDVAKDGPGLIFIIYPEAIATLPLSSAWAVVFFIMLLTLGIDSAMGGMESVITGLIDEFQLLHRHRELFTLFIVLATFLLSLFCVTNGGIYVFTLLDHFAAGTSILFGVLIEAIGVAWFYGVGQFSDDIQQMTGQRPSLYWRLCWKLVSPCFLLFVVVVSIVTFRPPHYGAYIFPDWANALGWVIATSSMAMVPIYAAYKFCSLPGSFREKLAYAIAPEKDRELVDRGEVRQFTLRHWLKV
Histamine H3 receptor, sequence (Q9Y5N1 whole entry): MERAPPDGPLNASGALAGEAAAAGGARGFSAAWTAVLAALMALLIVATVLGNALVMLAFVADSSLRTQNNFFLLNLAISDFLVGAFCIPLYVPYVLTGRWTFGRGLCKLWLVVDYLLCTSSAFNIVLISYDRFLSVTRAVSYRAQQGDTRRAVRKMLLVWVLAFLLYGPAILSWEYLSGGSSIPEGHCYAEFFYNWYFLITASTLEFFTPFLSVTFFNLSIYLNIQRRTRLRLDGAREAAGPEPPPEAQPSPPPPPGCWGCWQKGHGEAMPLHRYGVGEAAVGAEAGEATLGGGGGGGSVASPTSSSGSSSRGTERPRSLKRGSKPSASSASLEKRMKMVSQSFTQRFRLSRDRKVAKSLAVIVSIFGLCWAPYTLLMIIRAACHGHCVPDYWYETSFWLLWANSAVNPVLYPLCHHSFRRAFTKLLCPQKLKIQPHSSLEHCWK
Gamma-aminobutyric acid receptor subunit alpha-1, sequence (P62813 whole entry): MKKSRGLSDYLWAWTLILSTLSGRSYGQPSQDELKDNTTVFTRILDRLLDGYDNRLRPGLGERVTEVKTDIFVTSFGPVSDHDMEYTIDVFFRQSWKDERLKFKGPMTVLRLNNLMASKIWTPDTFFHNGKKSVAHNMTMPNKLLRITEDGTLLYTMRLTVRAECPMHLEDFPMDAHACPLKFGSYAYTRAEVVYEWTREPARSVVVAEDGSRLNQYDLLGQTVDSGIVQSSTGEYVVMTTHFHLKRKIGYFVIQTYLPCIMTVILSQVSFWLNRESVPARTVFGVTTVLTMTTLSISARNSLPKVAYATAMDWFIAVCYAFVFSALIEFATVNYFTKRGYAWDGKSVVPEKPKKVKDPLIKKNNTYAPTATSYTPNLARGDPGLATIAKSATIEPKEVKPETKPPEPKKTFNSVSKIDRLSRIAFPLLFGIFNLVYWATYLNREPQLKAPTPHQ
D(1A) dopamine receptor, sequence (P21728 whole entry): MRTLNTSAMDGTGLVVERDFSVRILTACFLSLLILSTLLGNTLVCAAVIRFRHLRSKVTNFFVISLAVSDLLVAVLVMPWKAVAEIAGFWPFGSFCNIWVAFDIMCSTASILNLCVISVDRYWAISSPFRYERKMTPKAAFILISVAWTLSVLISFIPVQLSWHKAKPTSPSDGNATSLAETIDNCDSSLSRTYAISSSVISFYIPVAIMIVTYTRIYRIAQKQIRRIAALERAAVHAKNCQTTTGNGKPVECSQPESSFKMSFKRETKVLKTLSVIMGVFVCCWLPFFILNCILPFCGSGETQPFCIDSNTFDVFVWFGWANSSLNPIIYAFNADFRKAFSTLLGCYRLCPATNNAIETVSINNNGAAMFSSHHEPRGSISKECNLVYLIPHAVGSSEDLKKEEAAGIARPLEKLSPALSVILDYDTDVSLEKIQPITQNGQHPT
5-hydroxytryptamine receptor 2B, sequence (P41595 whole entry): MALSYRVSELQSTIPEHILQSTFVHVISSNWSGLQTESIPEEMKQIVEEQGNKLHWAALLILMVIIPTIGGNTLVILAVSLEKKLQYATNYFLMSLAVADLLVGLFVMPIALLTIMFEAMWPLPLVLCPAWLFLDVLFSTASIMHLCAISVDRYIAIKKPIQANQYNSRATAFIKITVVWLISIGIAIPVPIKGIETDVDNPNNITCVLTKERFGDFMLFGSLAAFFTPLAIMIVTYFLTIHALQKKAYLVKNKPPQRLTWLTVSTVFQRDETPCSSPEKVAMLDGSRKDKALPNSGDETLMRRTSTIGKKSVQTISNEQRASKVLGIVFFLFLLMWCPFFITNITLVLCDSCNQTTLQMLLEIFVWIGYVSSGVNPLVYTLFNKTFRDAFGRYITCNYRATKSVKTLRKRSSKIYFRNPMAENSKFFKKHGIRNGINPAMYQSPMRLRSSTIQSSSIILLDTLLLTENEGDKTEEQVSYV
Vasopressin V1a receptor, sequence (P37288 whole entry): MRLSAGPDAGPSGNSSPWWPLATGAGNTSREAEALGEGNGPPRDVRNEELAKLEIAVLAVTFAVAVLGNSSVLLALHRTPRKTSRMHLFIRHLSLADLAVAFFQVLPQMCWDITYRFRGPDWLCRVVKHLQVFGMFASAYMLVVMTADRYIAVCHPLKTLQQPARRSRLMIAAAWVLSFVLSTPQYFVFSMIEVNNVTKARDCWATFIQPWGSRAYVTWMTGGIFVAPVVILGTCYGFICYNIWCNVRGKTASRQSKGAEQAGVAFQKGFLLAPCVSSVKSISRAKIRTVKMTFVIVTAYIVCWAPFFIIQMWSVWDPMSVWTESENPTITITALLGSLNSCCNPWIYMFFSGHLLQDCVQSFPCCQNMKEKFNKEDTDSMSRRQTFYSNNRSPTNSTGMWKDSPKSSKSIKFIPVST
Voltage-gated inwardly rectifying potassium channel KCNH2, sequence (Q12809 whole entry): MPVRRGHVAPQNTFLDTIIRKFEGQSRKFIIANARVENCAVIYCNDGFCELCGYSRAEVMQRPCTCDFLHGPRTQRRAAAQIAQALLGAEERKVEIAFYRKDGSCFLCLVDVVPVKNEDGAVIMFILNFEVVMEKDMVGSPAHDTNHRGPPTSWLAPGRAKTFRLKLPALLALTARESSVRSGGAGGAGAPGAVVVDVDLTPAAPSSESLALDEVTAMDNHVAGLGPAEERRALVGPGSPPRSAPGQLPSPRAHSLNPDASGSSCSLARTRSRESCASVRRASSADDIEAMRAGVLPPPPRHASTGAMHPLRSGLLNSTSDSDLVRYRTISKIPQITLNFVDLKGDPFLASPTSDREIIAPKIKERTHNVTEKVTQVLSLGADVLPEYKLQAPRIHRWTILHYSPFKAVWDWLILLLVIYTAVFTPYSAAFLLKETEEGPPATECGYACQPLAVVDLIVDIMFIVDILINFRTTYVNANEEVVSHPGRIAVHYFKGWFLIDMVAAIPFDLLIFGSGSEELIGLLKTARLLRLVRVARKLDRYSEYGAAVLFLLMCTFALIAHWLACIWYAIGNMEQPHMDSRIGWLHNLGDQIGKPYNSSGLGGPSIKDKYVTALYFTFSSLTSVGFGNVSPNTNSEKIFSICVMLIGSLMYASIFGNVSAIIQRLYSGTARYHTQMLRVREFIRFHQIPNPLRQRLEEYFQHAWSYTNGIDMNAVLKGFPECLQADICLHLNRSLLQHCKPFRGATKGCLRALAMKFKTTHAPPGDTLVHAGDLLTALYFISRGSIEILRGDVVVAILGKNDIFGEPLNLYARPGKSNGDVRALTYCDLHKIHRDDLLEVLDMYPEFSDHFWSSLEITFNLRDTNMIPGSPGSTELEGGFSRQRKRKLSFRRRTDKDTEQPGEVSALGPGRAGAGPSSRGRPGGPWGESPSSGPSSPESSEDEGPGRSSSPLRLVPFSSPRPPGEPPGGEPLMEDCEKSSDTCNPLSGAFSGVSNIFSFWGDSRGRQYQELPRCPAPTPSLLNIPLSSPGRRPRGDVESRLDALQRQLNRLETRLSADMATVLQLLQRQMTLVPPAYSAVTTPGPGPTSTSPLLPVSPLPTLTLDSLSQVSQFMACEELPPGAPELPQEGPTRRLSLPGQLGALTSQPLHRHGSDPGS
3',5'-cyclic-AMP phosphodiesterase 4D, sequence (Q08499 whole entry): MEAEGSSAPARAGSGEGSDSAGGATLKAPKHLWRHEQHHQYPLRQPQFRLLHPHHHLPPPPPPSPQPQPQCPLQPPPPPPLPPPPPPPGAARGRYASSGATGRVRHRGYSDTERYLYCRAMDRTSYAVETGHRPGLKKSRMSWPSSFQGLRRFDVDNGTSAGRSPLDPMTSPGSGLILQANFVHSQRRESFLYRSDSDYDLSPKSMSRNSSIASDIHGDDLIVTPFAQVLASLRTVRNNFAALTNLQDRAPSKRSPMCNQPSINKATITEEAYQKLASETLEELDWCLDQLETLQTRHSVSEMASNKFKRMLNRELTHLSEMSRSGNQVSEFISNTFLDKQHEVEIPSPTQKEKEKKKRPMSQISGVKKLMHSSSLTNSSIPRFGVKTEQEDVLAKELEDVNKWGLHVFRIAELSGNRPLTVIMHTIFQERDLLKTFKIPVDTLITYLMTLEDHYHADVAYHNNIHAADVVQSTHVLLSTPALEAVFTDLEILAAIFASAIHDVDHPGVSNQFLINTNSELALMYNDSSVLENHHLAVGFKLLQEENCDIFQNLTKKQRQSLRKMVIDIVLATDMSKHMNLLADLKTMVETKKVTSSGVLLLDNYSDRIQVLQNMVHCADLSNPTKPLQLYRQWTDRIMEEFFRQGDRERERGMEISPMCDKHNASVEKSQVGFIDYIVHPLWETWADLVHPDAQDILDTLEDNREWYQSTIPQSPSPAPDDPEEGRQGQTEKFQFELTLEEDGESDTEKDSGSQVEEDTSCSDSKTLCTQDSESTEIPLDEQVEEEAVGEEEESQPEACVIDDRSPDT

Regarding `CC(=O)c1ccc2c(c1)N(CCCN1CCC(CCO)CC1)c1ccccc1S2` [PIPERACETAZINE], the AC50 at D(1A) dopamine receptor was over 30 µM; in assay [1] it was over 30 µM; on Vasopressin V1a receptor, over 30 µM; in assay [2], over 30 µM; in assay [3], 7.9 µM; in assay [4], 0.5 µM. The AC50 is over 30 µM at Histamine H3 receptor; 7.6 µM in assay [5]; over 30 µM in assay [6]; over 30 µM in assay [7]; over 30 µM on Estrogen receptor; over 30 µM in [8]. Besides, in [9], the activity was half-maximal at 0.37 µM (AC50).

Turning to `Cc1ccc(=O)n(-c2ccccc2)c1` [PIRFENIDONE], the AC50 (at D(1A) dopamine receptor; in [1]; at Vasopressin V1a receptor; in [2]; in assay [3]; in assay [4]) was over 30 µM each time. For the same molecule, the AC50 (on Histamine H3 receptor; in assay [5]; in assay [6]; in assay [7]; at Estrogen receptor; in [8]) was over 30 µM each time. Also, the AC50 in assay [9] is over 30 µM.

Take `NC(=O)CCC/N=C(\c1ccc(Cl)cc1)c1cc(F)ccc1O` [PROGABIDE]: the AC50 on D(1A) dopamine receptor was over 10 µM; in assay [1] it was over 10 µM; at Vasopressin V1a receptor, over 10 µM; in [2] it was over 10 µM; in [3] it was over 10 µM; in assay [4] it was over 30 µM. Also, the AC50 (on Histamine H3 receptor; in assay [5]; in assay [6]; in assay [7]; at Estrogen receptor; in [8]) was over 10 µM in each case. Besides, the AC50 in assay [9] is over 10 µM.

On to `CCCOC(C(=O)OC1CCN(C)CC1)(c1ccccc1)c1ccccc1` [PROPIVERINE], for which the AC50 is over 30 µM at D(1A) dopamine receptor; over 30 µM in [1]; over 30 µM on Vasopressin V1a receptor; over 30 µM in assay [2]; 1.7 µM in [3]; 3.2 µM in [4]. Besides, the AC50 at Histamine H3 receptor is over 30 µM; in [5], 16 µM; in assay [6], over 30 µM; in assay [7] it was over 30 µM; at Estrogen receptor, over 30 µM; in assay [8], over 30 µM. In assay [9], this molecule had an AC50 of over 30 µM.

`CC(NCCc1ccc(O)cc1)C(O)c1ccc(O)cc1` (stereo unspecified) [RITODRINE]: the AC50 on D(1A) dopamine receptor is over 10 µM; in assay [1], over 30 µM; on Vasopressin V1a receptor it was over 30 µM; in assay [2], over 30 µM; in [3], over 30 µM; in [4], over 30 µM. Besides, the AC50 at Histamine H3 receptor is over 30 µM; in assay [5], 19.5 µM and 12.3 µM; in assay [6], over 30 µM; in assay [7], over 30 µM; at Estrogen receptor it was over 30 µM; in assay [8], over 30 µM. Besides, the AC50 in assay [9] is over 30 µM.

`C=CC(N)CCC(=O)O` (stereo unspecified) [VIGABATRIN]: the AC50 at D(1A) dopamine receptor is over 10 µM; in assay [1], over 10 µM; at Vasopressin V1a receptor, over 10 µM; in [2] it was over 30 µM; in assay [3], over 10 µM; in assay [4] it was over 30 µM. Also, the AC50 is over 10 µM on Histamine H3 receptor; 19.5 µM in assay [5]; over 10 µM in [6]; over 10 µM in [7]; over 10 µM on Estrogen receptor; over 30 µM in assay [8]. In [9], this molecule came in with an AC50 of over 10 µM.

For the molecule `N#C[C@@H]1CCCN1C(=O)CNC12CC3CC(CC(O)(C3)C1)C2` [VILDAGLIPTIN], the AC50 (on D(1A) dopamine receptor; in [1]; on Vasopressin V1a receptor; in assay [2]; in assay [3]; in assay [4]) was over 30 µM each time. The AC50 is over 10 µM on Histamine H3 receptor; over 30 µM in assay [5]; over 30 µM in assay [6]; over 30 µM in assay [7]; over 30 µM on Estrogen receptor; over 30 µM in assay [8]. In addition, the AC50 in [9] was over 30 µM.

Source of the values: ChEMBL document CHEMBL5291721, “A preclinical secondary pharmacology resource illuminates target-adverse drug reaction associations of marketed drugs” (Nat Commun, 2023).
